Tests used:
[1] = system: P. falciparum 3D7-yDHODH; assay: Growth inhibition of yeast DHODH-expressing strain; format: cell-based; conditions: Plasmodium falciparum, 3D7, read-out: Growth inhibition EC50, 3D7-yDHODH
Description: (§1) P. falciparum 3D7-yDHODH was prepared and maintained as described previously. P. falciparum Dd2, and Dd2-derived mutant strains were kindly provided by David A. Fidock, and maintained at Nagasaki University essentially as described in reference, except without supplementation with WR99210.
(§2) Synchronized ring-form parasites (0.3% parasitemia) were prepared in complete medium containing different concentration of various compounds (at a fixed final DMSO concentration of 0.1% (v/v)) and distributed to 96-well plates at 100 μL/well. After 72 h of incubation, parasite growth was monitored by the previously described lactate dehydrogenase (PfLDH)-based assay method; plates were read using a SpectraMax® Paradigm spectrophotometer (Molecular Devices, Inc.; San Jose, CA, USA). EC50 values were calculated using Prism® ver.6.01 (GraphPad; San Diego, CA, USA). Values are presented as the means of three independent experiments.

[2] = molecular target: T1, dihydroorotate dehydrogenase (DHODH) (Plasmodium falciparum, UniProt Q08210); assay: DHODH activity, crude mitochondrial fraction, DCIP reduction; format: biochemical
T1 construct: used as crude mitochondrial fraction for all enzymatic assays; endogenous in cells; host or cells: P. falciparum 3D7 trophozoite-stage parasites, crude mitochondrial fraction
T1 sequence (Q08210 24-569): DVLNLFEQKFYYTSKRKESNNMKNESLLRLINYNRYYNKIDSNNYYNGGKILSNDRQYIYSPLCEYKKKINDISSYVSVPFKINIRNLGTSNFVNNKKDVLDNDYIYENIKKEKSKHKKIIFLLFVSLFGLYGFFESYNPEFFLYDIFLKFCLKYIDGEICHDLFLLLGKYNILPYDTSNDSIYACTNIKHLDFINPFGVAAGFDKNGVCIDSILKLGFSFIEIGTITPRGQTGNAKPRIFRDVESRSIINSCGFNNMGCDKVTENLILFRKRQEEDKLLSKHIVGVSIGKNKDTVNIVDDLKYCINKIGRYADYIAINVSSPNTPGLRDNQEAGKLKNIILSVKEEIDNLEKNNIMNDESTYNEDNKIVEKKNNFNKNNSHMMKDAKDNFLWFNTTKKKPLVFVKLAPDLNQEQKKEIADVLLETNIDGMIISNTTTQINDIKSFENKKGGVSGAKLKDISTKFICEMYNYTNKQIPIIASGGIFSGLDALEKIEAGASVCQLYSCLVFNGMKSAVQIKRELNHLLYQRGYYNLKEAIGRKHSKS
Description: A synchronized parasite culture was grown for 64 h and a crude mitochondrial fraction was prepared from trophozoite-stage cells (as confirmed by Giemsa staining). Infected red blood cells were collected by centrifugation at 800× g for 5 min at 4 °C and incubated for 5 min at room temperature with 40 mL of 0.075% (w/v) saponin in AIM buffer (120 mM KCl, 20 mM NaCl, 10 mM PIPES (1,4-piperazinediethanesulfonic acid) buffer [pH 6.7], 1 mM MgCl2, 5 mM glucose). Released parasites were collected by centrifugation at 2780× g for 7 min at 4 °C and washed three times with AIM buffer. P. falciparum was suspended in MSE buffer [225 mM mannitol, 75 mM sucrose, 0.1 mM ethylenediaminetetraacetic acid (EDTA), 3 mM Tris-HCl buffer, pH 7.4] containing 1 mM phenylmethylsulphonyl fluoride, and disrupted by nitrogen cavitation at 1200 psi using a 4639 Cell Disruption Bomb (Parr Instrument Company; Moline, IL, USA). The unbroken cells and cell debris were removed by centrifugation at 800× g for 5 min at 4 °C. The supernatant was centrifuged at 5000× g for 20 min at 4 °C. […]
(§3) Complex II, DHODH, MQO, NDH2, G3PDH, and dihydroorotate-cytochrome c (DHO-cyt c) reductase activities were measured, as described previously, using a V-660 spectrophotometer (JASCO; Tokyo, Japan). Briefly, complex II activity was measured at 25 °C in a 1 mL reaction mixture containing 45 μM 2,6-dichlorophenolidophenol (DCIP), 100 μM ubiquinone-2 (UQ2), and 2 mM KCN in 50 mM potassium phosphate buffer, pH 8.0. DHODH, MQO, and G3PDH activities were measured at 25 °C in 1 mL of the reaction mixture containing 45 μM DCIP, 100 μM UQ2, and 2 mM KCN in 30 mM Tris-HCl buffer, pH 8.0. Complex II, DHODH, MQO, and G3PDH activities were measured by monitoring the change in absorbance at 600 nm (reflecting DCIP reduction) after the reaction was initiated by adding 10 mM succinate, 500 μM dihydroorotate, 10 mM malate, or 500 μM glycerol-3-phosphate, respectively. NDH2 activity was measured at 25 °C in 1 mL of the reaction mixture containing 100 µM UQ1 and 2 mM KCN in 50 mM potassium phosphate buffer, pH 8.0. […]

[3] = system: Dd2_DHIQ (ATP4-G358S mutation); assay: Growth inhibition of Dd2_DHIQ (cipargamin-resistant); format: cell-based; conditions: Plasmodium falciparum, read-out: Growth inhibition EC50, DHIQ
Description: as §1, §2

[4] = system: Mammal complex II; conditions: ref Mogi et al. [34]; read-out: Siccanin IC50, Mammal, Complex II; cited from earlier work
[5] = system: type-II NADH dehydrogenase (NDH2); assay: NDH2 activity, crude mitochondrial fraction, NADH at 340 nm; format: biochemical, Plasmodium falciparum
Description: A synchronized parasite culture was grown for 64 h and a crude mitochondrial fraction was prepared from trophozoite-stage cells (as confirmed by Giemsa staining). Infected red blood cells were collected by centrifugation at 800× g for 5 min at 4 °C and incubated for 5 min at room temperature with 40 mL of 0.075% (w/v) saponin in AIM buffer (120 mM KCl, 20 mM NaCl, 10 mM PIPES (1,4-piperazinediethanesulfonic acid) buffer [pH 6.7], 1 mM MgCl2, 5 mM glucose). Released parasites were collected by centrifugation at 2780× g for 7 min at 4 °C and washed three times with AIM buffer. […]
as §3, with “Complex II, DHODH, MQO, and G3PDH activities were measured by monitoring the change in absorbance at 600 nm (reflecting DCIP reduction) after the reaction was initiated by adding 10 mM succinate, 500 μM dihydroorotate, 10 mM malate, or 500 μM glycerol-3-phosphate, respectively.” left out

SMILES: Cc1cc(O)c2c(c1)O[C@@]1(C)CC[C@H]3C(C)(C)CCC[C@]34CO[C@@H]2[C@H]41 [Siccanin]
- EC50 [1]: 10.3 µM
- Effect on DHODH activity ([2]; 10 µM): did not inhibit
- Effect on DHODH activity ([2]; 60 μM): does not inhibit
- remaining activity at 10 µM ([2]; siccanin 10 μM, read-out: Relative residual activity of DHODH): 101 ± 8.1%
- EC50 [3]: 16.4 µM
- IC50 [4]: 861 µM
- Effect on NDH2 activity ([5]; 10 µM): did not inhibit
- Relative residual activity of NDH2 ([5]; siccanin 10 μM): 101.8 ± 8.1%

Reference: publication PMC9319939, “Siccanin Is a Dual-Target Inhibitor of Plasmodium falciparum Mitochondrial Complex II and Complex III” (Pharmaceuticals, 2022)
